Data published in ChEMBL document CHEMBL5154804, “Species-Selective Targeting of Fungal Hsp90: Design, Synthesis, and Evaluation of Novel 4,5-Diarylisoxazole Derivatives for the Combination Treatment of Azole-Resistant Candidiasis” (J Med Chem, 2022).

Columns and labels:
[1] = Metabolic stability in human liver microsomes assessed as microsomal intrinsic clearance in presence of NADPH cofactor under shaking condition for 10 mins measured after 5 to 60 mins by LC-MS/MS analysis; format: ADME, Microsome; conditions: time 15-70 min
[2] = Metabolic stability in human liver microsomes assessed as intrinsic clearance in presence of NADPH cofactor under shaking condition for 10 mins measured after 5 to 60 mins by LC-MS/MS analysis; format: ADME, Microsome; conditions: time 15-70 min
Candida albicans [3] = experiment: Synergistic antifungal activity against fluconazole-resistant Candida albicans 311 assessed as inhibition of fungal growth in presence of fluconazole by checker board microdilution assay; format: functional; further: test concentration or dose not given here
[4] = Metabolic stability in human liver microsomes assessed as compound remaining in presence of NADPH cofactor under shaking condition for 10 mins measured after 60 mins by LC-MS/MS analysis; format: ADME, Microsome; conditions: time 70 min, read-out: Stability
Candida albicans [5] = experiment: Synergistic antifungal activity against fluconazole-resistant Candida albicans 100 assessed as inhibition of fungal growth in presence of fluconazole by checker board microdilution assay; format: functional
Heat shock protein HSP90 = Heat shock protein HSP90 (Homo sapiens, UniProt P07900+P08238); experiment: Binding affinity to human Hsp90 expressed in Escherichia coli by SPR assay
[6] = Binding affinity to recombinant Candida albicans Hsp90 NBD expressed in Escherichia coli by SPR assay
Candida albicans [7] = experiment: Synergistic antifungal activity against fluconazole-resistant Candida albicans 632 assessed as inhibition of fungal growth in presence of fluconazole by checker board microdilution assay; format: functional
[8] = Metabolic stability in human liver microsomes assessed as half life in presence of NADPH cofactor under shaking condition for 10 mins measured after 5 to 60 mins by LC-MS/MS analysis; format: ADME, Microsome; conditions: time 15-70 min
Candida albicans [9] = experiment: Synergistic antifungal activity against fluconazole-resistant Candida albicans 901 assessed as inhibition of fungal growth in presence of fluconazole by checker board microdilution assay; format: functional
Candida albicans [10] = experiment: Synergistic antifungal activity against fluconazole-resistant Candida albicans 103 assessed as inhibition of fungal growth in presence of fluconazole by checker board microdilution assay; format: functional
Candida albicans [11] = experiment: Synergistic antifungal activity against fluconazole-resistant Candida albicans 904 assessed as inhibition of fungal growth in presence of fluconazole by checker board microdilution assay; format: functional; further: test concentration or dose not given here

CCNC(=O)c1noc(-c2cc(-c3cccc(C(C)C)c3)c(O)cc2O)c1-c1ccc(CN2CCOCC2)cc1
CLint [1]: 91.9 µL/min/mg
CLint [2]: 82.7 mL/min/kg
MIC80 (Candida albicans [3]): 0.5 µg/mL
remaining at 1.167 h [4]: 6.1%
MIC80 (Candida albicans [5]): 0.25 µg/mL
Kd (Heat shock protein HSP90): > 25 µM
Kd [6]: 0.476 µM
MIC80 (Candida albicans [7]): 0.5 µg/mL
half-life [8]: 15.1 min
MIC80 (Candida albicans [9]): 0.25 µg/mL
MIC80 (Candida albicans [10]): 0.25 µg/mL
MIC80 (Candida albicans [11]): 0.25 µg/mL

CCNC(=O)c1noc(-c2cc(-c3ccccc3)c(O)cc2O)c1-c1ccc(CN2CCOCC2)cc1
MIC80 (Candida albicans [3]): 4 µg/mL
MIC80 (Candida albicans [5]): 2 µg/mL
Kd (Heat shock protein HSP90): > 25 µM
Kd [6]: 7.91 µM
MIC80 (Candida albicans [7]): 4 µg/mL
MIC80 (Candida albicans [9]): 1 µg/mL
MIC80 (Candida albicans [10]): 4 µg/mL
MIC80 (Candida albicans [11]): 2 µg/mL

CCNC(=O)c1noc(-c2cc(-c3cccc(CC)c3)c(O)cc2O)c1-c1ccc(CN2CCOCC2)cc1
CLint [1]: 80.7 µL/min/mg
CLint [2]: 72.7 mL/min/kg
MIC80 (Candida albicans [3]): 0.5 µg/mL
remaining at 1.167 h [4]: 9.2%
MIC80 (Candida albicans [5]): 0.25 µg/mL
MIC80 (Candida albicans [7]): 0.5 µg/mL
half-life [8]: 17.2 min
MIC80 (Candida albicans [9]): 0.25 µg/mL
MIC80 (Candida albicans [10]): 1 µg/mL
MIC80 (Candida albicans [11]): 0.5 µg/mL

CCNC(=O)c1noc(-c2cc(-c3cccc(Cl)c3)c(O)cc2O)c1-c1ccc(CN2CCOCC2)cc1
CLint [1]: 72 µL/min/mg
CLint [2]: 64.8 mL/min/kg
MIC80 (Candida albicans [3]): 1 µg/mL
remaining at 1.167 h [4]: 12.1%
MIC80 (Candida albicans [5]): 1 µg/mL
MIC80 (Candida albicans [7]): 0.5 µg/mL
half-life [8]: 19.3 min
MIC80 (Candida albicans [9]): 1 µg/mL
MIC80 (Candida albicans [10]): 0.5 µg/mL
MIC80 (Candida albicans [11]): 0.25 µg/mL
